A short description of data set [1]: Reversed-phase TLC on RP-2 silanized plates (Rf). It is filed as physicochemical. Particulars: silica gel 60 RP-2 F254 silanized; water:methanol:acetonitrile 60:20:20, ammonium acetate pH 7.4.
Procedure: The purity of the isolated substances was checked by TLC chromatography and densitometric scanning.
APIs were subjected to chromatographic in column (HPLC) and thin layer (TLC) formats. TLC chromatography was carried out on 20 cm × 20 cm glass plates by Merck, covered with silica gel and the addition of a fluorescent indicator. Merck TLC silica gel 60 F254 was used for the normal phase (NP). In the reverse phase (RP), RP-2 silanized plates were used (Merck TLC Silica gel 60 RP-2 F254, silanized). The mobile phase was buffered with ammonium acetate to pH 7.4 (LACH-NER, ammonium acetate).
Plates, after developing the chromatograms, were scanned using a densitometer (Desaga CD 60) with an analytical wavelength selected individually for drugs. The values of Rf (molecular descriptors: NP, RP) were determined.
Data set [2] is described as follows: HPLC on IAM (immobilized artificial membrane) column, retention factor. Particulars: IAM.PC.DD.2 column; for k(IAM) retention factor: 10 mM phosphate buffer pH 7.4:acetonitrile 80:20; for logkIAM: logarithm of retention factor, phosphate buffer pH 7.4:acetonitrile 80:20. It is filed as physicochemical.
A short description of data set [3]: Normal-phase TLC on silica gel 60 F254 (Rf). The following applies: water:methanol:acetonitrile 60:20:20, ammonium acetate pH 7.4. It is filed as physicochemical.
The conditions of data set [4]: cited from earlier work.
Setting [5] is: plasma protein binding, given as fraction, ref Drugbank.

Where two headings read alike, the source gives them in different places.

For `CN[C@H]1CC[C@@H](c2ccc(Cl)c(Cl)c2)c2ccccc21` [sertraline], the “RP (Rf from RP-2 TLC plate)” value in data set [1] was found to be 0.49. Also, in data set [2], the “k(IAM) retention factor” value stood at 42.89 and the logkIAM is given as 1.63. In addition, the “NP (Rf from NP TLC plate)” value in data set [3] was 0.53. Also, in data set [4] (setting [5]), the “PB (protein binding)” value was 0.98.
As for `CN1CCN(C(=O)OC2c3nccnc3C(=O)N2c2ccc(Cl)cn2)CC1` (stereo not drawn) [zopiclone], in data set [1], the “RP (Rf from RP-2 TLC plate)” value came out at 0.84. Further, in data set [2], the “k(IAM) retention factor” value is 0.91 and the logkIAM is given as -0.04. Also, in data set [3], the “NP (Rf from NP TLC plate)” value was found to be 0.96. Besides, the “PB (protein binding)” value in data set [4] (setting [5]) is 0.45.
Take `OC(CCN1CCCCC1)(c1ccccc1)C1CC2C=CC1C2` (stereo not drawn) [biperiden]: the “RP (Rf from RP-2 TLC plate)” value in data set [1] is 0.87. In data set [2], the “k(IAM) retention factor” value was determined as 41.47 and the logkIAM was 1.62. The “NP (Rf from NP TLC plate)” value in data set [3] came to 0.68. In data set [4] (setting [5]), the “PB (protein binding)” value is 0.6.
Take `CCOCCn1c(C2CCN(CCc3ccc(C(C)(C)C(=O)O)cc3)CC2)nc2ccccc21` [bilastine]: in data set [1], the “RP (Rf from RP-2 TLC plate)” value is listed as 0.76. For the same molecule, in data set [2], the “k(IAM) retention factor” value was 0.55 and the logkIAM is -0.26. In data set [3], the “NP (Rf from NP TLC plate)” value is given as 0.46. Besides, the “PB (protein binding)” value in data set [4] (setting [5]) is given as 0.87.
For `CN(C)CCc1c[nH]c2ccc(C[C@H]3COC(=O)N3)cc12` [zolmitriptane], the “RP (Rf from RP-2 TLC plate)” value in data set [1] is on record as 0.86. In addition, in data set [2], the “k(IAM) retention factor” value came to 3.30 and the logkIAM was 0.52. In data set [3], the “NP (Rf from NP TLC plate)” value stood at 0.31. Also, the “PB (protein binding)” value in data set [4] (plasma) is given as 0.25.
Take `C[C@H]1COc2c(N3CCN(C)CC3)c(F)cc3c(=O)c(C(=O)O)cn1c23` [levofloxacin]: the “RP (Rf from RP-2 TLC plate)” value in data set [1] came out at 0.27. For the same molecule, in data set [2], the “k(IAM) retention factor” value was 0.90 and the logkIAM is on record as -0.04. Further, the “NP (Rf from NP TLC plate)” value in data set [3] is reported as 0.17. For the same molecule, in data set [4] (setting [5]), the “PB (protein binding)” value is reported as 0.31.
On to `Cc1cncc(CN2CCC(=C3c4ccc(Cl)cc4CCc4cccnc43)CC2)c1` [rupatadine], for which, in data set [1], the “RP (Rf from RP-2 TLC plate)” value amounted to 0.55. In data set [2], the “k(IAM) retention factor” value is recorded as 9.29 and the logkIAM was found to be 0.97. In addition, the “NP (Rf from NP TLC plate)” value in data set [3] worked out at 0.42. Moreover, the “PB (protein binding)” value in data set [4] (setting [5]) was 0.985.
As to `CCN(Cc1ccncc1)C(=O)C(CO)c1ccccc1` (stereo not drawn) [tropicamid], in data set [1], the “RP (Rf from RP-2 TLC plate)” value is on record as 0.83. In data set [2], the “k(IAM) retention factor” value turned out to be 1.06 and the logkIAM was determined as 0.03. The “NP (Rf from NP TLC plate)” value in data set [3] came to 0.85. For the same molecule, in data set [4] (plasma), the “PB (protein binding)” value is 0.45.
`CCN1CCCC1CNC(=O)c1cc(S(N)(=O)=O)ccc1OC` (stereo not drawn) [sulpiride]: the “RP (Rf from RP-2 TLC plate)” value in data set [1] stood at 0.85. In addition, in data set [2], the “k(IAM) retention factor” value worked out at 1.66 and the logkIAM turned out to be 0.22. Besides, in data set [3], the “NP (Rf from NP TLC plate)” value was 0.27. Also, the “PB (protein binding)” value in data set [4] (setting [5]) is listed as 0.4.
Consider `CO[C@H]1/C=C/O[C@@]2(C)Oc3c(C)c(O)c4c(O)c(c(/C=N/N5CCN(C)CC5)c(O)c4c3C2=O)NC(=O)/C(C)=C\C=C\[C@H](C)[C@H](O)[C@@H](C)[C@@H](O)[C@@H](C)[C@H](OC(C)=O)[C@@H]1C` [rifampicin], for which the “RP (Rf from RP-2 TLC plate)” value in data set [1] worked out at 0.95. For the same molecule, the “NP (Rf from NP TLC plate)” value in data set [3] was 0.73. Besides, in data set [4] (setting [5]), the “PB (protein binding)” value was 0.89.
In the case of `C[C@]12CC[C@@H]3c4ccc(OC(=O)c5ccccc5)cc4CC[C@H]3[C@@H]1CC[C@@H]2O` [estradiol benzoate], the “RP (Rf from RP-2 TLC plate)” value in data set [1] was 0.63. Further, in data set [2], the “k(IAM) retention factor” value amounted to 6.92 and the logkIAM was found to be 0.84. Moreover, in data set [3], the “NP (Rf from NP TLC plate)” value stood at 0.97. The “PB (protein binding)” value in data set [4] (setting [5]) is 0.95.
In the case of `CCN(CC)C(=O)Nc1ccc(OCC(O)CNC(C)(C)C)c(C(C)=O)c1` (stereo not drawn) [celiprolol], in data set [1], the “RP (Rf from RP-2 TLC plate)” value is listed as 0.75. Moreover, in data set [2], the “k(IAM) retention factor” value is 5.87 and the logkIAM worked out at 0.77. For the same molecule, the “NP (Rf from NP TLC plate)” value in data set [3] came out at 0.45. Also, in data set [4] (setting [5]), the “PB (protein binding)” value is listed as 0.275.
Regarding `CC[C@H]1OC(=O)[C@H](C)[C@@H](O[C@H]2C[C@@](C)(OC)[C@@H](O)[C@H](C)O2)[C@H](C)[C@@H](O[C@@H]2O[C@H](C)C[C@H](N(C)C)[C@H]2O)[C@](C)(O)C[C@@H](C)/C(=N\OCOCCOC)[C@H](C)[C@@H](O)[C@]1(C)O` [roxitromicin], in data set [1], the “RP (Rf from RP-2 TLC plate)” value came to 0.8. The “NP (Rf from NP TLC plate)” value in data set [3] is given as 0.91. In addition, the “PB (protein binding)” value in data set [4] (plasma) is given as 0.96.
Regarding `CCS(=O)(=O)CCn1c([N+](=O)[O-])cnc1C` [tinidazole], the “NP (Rf from NP TLC plate)” value in data set [3] came out at 0.89. Besides, the “PB (protein binding)” value in data set [4] (setting [5]) is 0.12.
As to `CC(C)C[C@H]1C(=O)N2CCC[C@H]2[C@]2(O)O[C@](NC(=O)[C@@H]3C=C4c5cccc6[nH]c(Br)c(c56)C[C@H]4N(C)C3)(C(C)C)C(=O)N12` [bromocriptine], the “RP (Rf from RP-2 TLC plate)” value in data set [1] is 0.69. Also, in data set [2], the “k(IAM) retention factor” value was determined as 12.69 and the logkIAM is reported as 1.10. Also, in data set [3], the “NP (Rf from NP TLC plate)” value is 0.95. In addition, in data set [4] (setting [5]), the “PB (protein binding)” value is 0.93.
As to `O=C(O)C1N=C(c2ccccc2)c2cc(Cl)ccc2NC1=O` (stereo not drawn) [clorazepate], the “RP (Rf from RP-2 TLC plate)” value in data set [1] worked out at 0.81. Also, in data set [2], the “k(IAM) retention factor” value is listed as 4.88 and the logkIAM came to 0.69. In addition, the “NP (Rf from NP TLC plate)” value in data set [3] worked out at 0.94. In addition, the “PB (protein binding)” value in data set [4] (setting [5]) was 0.975.
Take `CN1CCN=C(c2ccccc2)c2cc(Cl)ccc21` [medazepam]: the “RP (Rf from RP-2 TLC plate)” value in data set [1] came out at 0.66. Besides, in data set [2], the “k(IAM) retention factor” value is 34.65 and the logkIAM worked out at 1.54. For the same molecule, the “NP (Rf from NP TLC plate)” value in data set [3] is 0.91. Also, the “PB (protein binding)” value in data set [4] (setting [5]) is 0.99.
As to `CC(C)NCC(O)COc1ccc(CCOCC2CC2)cc1` (stereo not drawn) [betaxolol], the “RP (Rf from RP-2 TLC plate)” value in data set [1] came out at 0.27. In data set [3], the “NP (Rf from NP TLC plate)” value was 0.66. In addition, the “PB (protein binding)” value in data set [4] (setting [5]) is 0.5.
`CC(=O)Nc1nnc(S(N)(=O)=O)s1` [acetazolamid]: in data set [1], the “RP (Rf from RP-2 TLC plate)” value is 0.97. The “PB (protein binding)” value in data set [4] (setting [5]) is reported as 0.98.
With `CC(=O)OCC(=O)[C@@]1(O)CC[C@H]2[C@@H]3CCC4=CC(=O)CC[C@]4(C)[C@H]3[C@@H](O)C[C@@]21C` [hydrocortisone acetate], in data set [2], the “k(IAM) retention factor” value is given as 2.82 and the logkIAM came out at 0.45. In addition, the “NP (Rf from NP TLC plate)” value in data set [3] was found to be 0.96. The “PB (protein binding)” value in data set [4] (setting [5]) is given as 0.95.
`Nc1nc2c(ncn2COCCO)c(=O)[nH]1` [aciclovir]: the “RP (Rf from RP-2 TLC plate)” value in data set [1] is 0.99. Moreover, in data set [2], the “k(IAM) retention factor” value turned out to be 0.09 and the logkIAM is on record as -1.04. In addition, the “PB (protein binding)” value in data set [4] (setting [5]) is reported as 0.21.
As for `CC(C)NCC(O)COc1cccc2[nH]ccc12` (stereo not drawn) [pindolol], in data set [2], the “k(IAM) retention factor” value came to 6.09 and the logkIAM came out at 0.78. The “NP (Rf from NP TLC plate)” value in data set [3] was 0.53. In addition, the “PB (protein binding)” value in data set [4] (setting [5]) is recorded as 0.4.
As to `O=C(O)COC(=O)Cc1ccccc1Nc1c(Cl)cccc1Cl` [aceclofenac], in data set [2], the “k(IAM) retention factor” value amounted to 2.63 and the logkIAM was found to be 0.42. In addition, the “NP (Rf from NP TLC plate)” value in data set [3] is given as 0.89. Further, the “PB (protein binding)” value in data set [4] (setting [5]) is recorded as 0.99.

The record behind these values is article PMC10384010, “Chromatographic Data in Statistical Analysis of BBB Permeability Indices” (Membranes, 2023).
